Patent publication US9382208B1, “Negative allosteric modulators of metabotropic glutamate receptor 2” (Vanderbilt University, priority 2015, dated 2016)

Molecular target: T1, rat mGlu2 (Rattus norvegicus, UniProt P31421)
T1 construct: expressed in transfected cells
Test: mGlu2 Ca2+ flux assay
Format: cell-based
Details: for IC50: Gα15 HEK293 cells stably expressing rat mGlu2, glutamate EC80 addition, read-out: rat mGlu2 IC50; for remaining activity at 30 µM: amplitude of response in the presence of 30 μM test compound as percentage of maximal response to glutamate, read-out: rat mGlu2 Glu max (%)
Experimental: Gα15 HEK293 cells stably expressing rat mGlu2 were plated in black-walled, clear-bottomed, poly-D-lysine coated 384-well plates in 20 μL of assay medium (DMEM containing 10% dialyzed FBS, 20 mM HEPES, and 1 mM sodium pyruvate) at a density of 12K cells/well. The cells were grown overnight at 37° C. in the presence of 5% CO2. The next day, medium was removed and the cells incubated with 20 μL of 2.3 μM Fluo-4, AM prepared as a 2.3 mM stock in DMSO and mixed in a 1:1 ratio with 10% (w/v) pluronic acid F-127 and diluted in assay buffer (Hank's balanced salt solution, 20 mM HEPES, and 2.5 mM probenecid) for 45 minutes at 37° C. Dye was removed, 20 μL of assay buffer was added, and the plate was incubated for 5 minutes at room temperature.
Ca^2+ flux was measured using the Functional Drug Screening System (FDSS7000, Hamamatsu, Japan). After establishment of a fluorescence baseline for about 3 seconds, the compounds of the present invention were added to the cells, and the response in cells was measured. 2.3 minutes later an EC20 concentration of the mGlu2 receptor agonist glutamate was added to the cells, and the response of the cells was measured for 1.9 minutes; an EC80 concentration of agonist was added and readings taken for an additional 1.7 minutes. All test compounds were dissolved and diluted to a concentration of 10 mM in 100% DMSO. Compounds were then serially diluted 1:3 in DMSO into 10 point concentration response curves, transferred to daughter plates, and further diluted into assay buffer to a 2× stock. Calcium fluorescence measures were recorded as fold over basal fluorescence; raw data was then normalized to the maximal response to glutamate. Antagonism of the agonist response of the mGlu2 receptor in the present invention was observed as a decrease in response to nearly maximal concentrations of glutamate in the presence of compound compared to the response to glutamate in the absence of compound.
The raw data file containing all time points was used as the data source in the analysis template. This was saved by the FDSS as a tab-delimited text file. Data were normalized using a static ratio function (F/F0) for each measurement of the total 360 values per well divided by each well's initial value. Data were then reduced to peak amplitudes (Max−Initial Min) using a time range that starts approximately 3 seconds prior to the glutamate EC80 addition and continues for approximately 90 seconds. This is sufficient time to capture the peak amplitude of the cellular calcium response. Individual amplitudes were expressed as % ECMax by multiplying each amplitude by 100 and then dividing the product by the mean of the amplitudes derived from the glutamate ECMax-treated wells. IC50 values for test compounds were generated by fitting the normalized values versus the log of the test compound concentration (in mol/L) using a 4 parameter logistic equation where none of the parameters were fixed. Each of the three values collected at each concentration of test compound were weighted evenly.
For NAMs, potency (IC50) and maximum response (% Glu Max), i.e. the amplitude of response in the presence of 30 μM test compound as a percentage of the maximal response to glutamate, are reported. […] Compounds with no measurable activity are designated as “>30,000 nM” since the top concentration of compound tested in the assay is 30 μM.

T1 sequence (P31421 19-872): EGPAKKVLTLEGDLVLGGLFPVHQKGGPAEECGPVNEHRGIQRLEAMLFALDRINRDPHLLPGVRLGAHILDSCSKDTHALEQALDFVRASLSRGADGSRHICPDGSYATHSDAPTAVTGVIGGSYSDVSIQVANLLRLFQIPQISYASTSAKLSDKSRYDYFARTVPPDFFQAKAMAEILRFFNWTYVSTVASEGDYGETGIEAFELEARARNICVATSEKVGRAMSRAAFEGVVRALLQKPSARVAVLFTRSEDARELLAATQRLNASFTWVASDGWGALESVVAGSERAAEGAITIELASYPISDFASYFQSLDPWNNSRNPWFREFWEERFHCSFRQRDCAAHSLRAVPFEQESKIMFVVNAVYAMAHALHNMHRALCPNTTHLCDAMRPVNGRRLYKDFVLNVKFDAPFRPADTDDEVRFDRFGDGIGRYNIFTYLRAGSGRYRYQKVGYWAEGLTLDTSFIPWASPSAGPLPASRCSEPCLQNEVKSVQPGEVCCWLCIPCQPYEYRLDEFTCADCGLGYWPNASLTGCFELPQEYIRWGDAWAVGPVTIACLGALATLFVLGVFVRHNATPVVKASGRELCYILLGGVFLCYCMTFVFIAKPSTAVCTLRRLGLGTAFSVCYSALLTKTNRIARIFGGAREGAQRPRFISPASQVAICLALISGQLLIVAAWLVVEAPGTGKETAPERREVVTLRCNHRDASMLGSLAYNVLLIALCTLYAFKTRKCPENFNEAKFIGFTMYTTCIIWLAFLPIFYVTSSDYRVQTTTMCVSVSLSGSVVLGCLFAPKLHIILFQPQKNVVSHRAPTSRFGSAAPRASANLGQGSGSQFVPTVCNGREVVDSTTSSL

Compound | IC50 [nM] | remaining activity at 30 µM [%]
NC(=O)c1cn(-c2ccc(F)cc2)c2ccc(COc3ccncc3F)cc2c1=O [Compound 32, 1-(4-fluorophenyl)-6-(((3-fluoropyridin-4-yl)oxy)methyl)-4-oxo-1,4-dihydroquinoline-3-carboxamide] | 243 ± 63 | 1.83 ± 0.2
Cn1cc(-c2ccc3c(c2)c(=O)c(C(N)=O)cn3-c2ccc(F)cc2)cn1 [Compound 61, 1-(4-fluorophenyl)-6-(1-methyl-1H-pyrazol-4-yl)-4-oxo-1,4-dihydroquinoline-3-carboxamide] | 544 | 0.41
NC(=O)c1cn(-c2ccc(F)cc2)c2ccc(NCCN3CCOCC3)cc2c1=O [Compound 28, 1-(4-fluorophenyl)-6-((2-morpholinoethyl)amino)-4-oxo-1,4-dihydroquinoline-3-carboxamide] | 1150 | 0.77
NC(=O)c1cn(-c2ccc(F)cc2)c2ccc(CCc3ccccn3)cc2c1=O [Compound 11, 1-(4-fluorophenyl)-4-oxo-6-(2-(pyridin-2-yl)ethyl)-1,4-dihydroquinoline-3-carboxamide] | 2590 | 0.92
CN(Cc1cc(F)c2c(c1)c(=O)c(C(N)=O)cn2-c1ccc(F)cc1)C1CC(F)(F)C1 [Compound 91, 6-(((3,3-difluorocyclobutyl)(methyl)amino)methyl)-8-fluoro-1-(4-fluorophenyl)-4-oxo-1,4-dihydroquinoline-3-carboxamide] | > 30000 | 
NC(=O)c1cn(-c2ccc(F)cc2)c2ccc(Nc3cccnc3)cc2c1=O [Compound 16, 1-(4-fluorophenyl)-4-oxo-6-(pyridin-3-ylamino)-1,4-dihydroquinoline-3-carboxamide] | 433 | 1.77
CC(=O)N1CCN(Cc2ccc3c(c2)c(=O)c(C(N)=O)cn3-c2ccc(F)cc2)CC1 [Compound 82, 6-((4-acetylpiperazin-1-yl)methyl)-1-(4-fluorophenyl)-4-oxo-1,4-dihydroquinoline-3-carboxamide] | 3190 | 2.14
NC(=O)c1cn(-c2ccc(F)cc2)c2ccc(CN3CCC(F)(F)C3)cc2c1=O [Compound 86, 6-((3,3-difluoropyrrolidin-1-yl)methyl)-1-(4-fluorophenyl)-4-oxo-1,4-dihydroquinoline-3-carboxamide] | 259 | 0.98
Cc1cc(OCc2ccc3c(c2)c(=O)c(C(N)=O)cn3-c2ccc(F)cc2)ccn1 [Compound 33, 1-(4-fluorophenyl)-6-(((2-methylpyridin-4-yl)oxy)methyl)-4-oxo-1,4-dihydroquinoline-3-carboxamide] | 421 | 2.18
CN(c1ccncc1)c1ccc2c(c1)c(=O)c(C(N)=O)cn2-c1ccc(F)cc1 [Compound 18, 1-(4-fluorophenyl)-6-(methyl(pyridin-4-yl)amino)-4-oxo-1,4-dihydroquinoline-3-carboxamide] | 1150 | 1.73
Cc1cc(-n2cc(C(N)=O)c(=O)c3cc(CCc4cnc(C)nc4)ccc32)sn1 [Compound 22, 1-(3-methylisothiazol-5-yl)-6-(2-(2-methylpyrimidin-5-yl)ethyl)-4-oxo-1,4-dihydroquinoline-3-carboxamide] | 419 ± 46 | 1.2 ± 0.5
NC(=O)c1cn(-c2ccc(F)cc2)c2ccc(COc3ccc(F)nc3)cc2c1=O [Compound 45, 1-(4-fluorophenyl)-6-(((6-fluoropyridin-3-yl)oxy)methyl)-4-oxo-1,4-dihydroquinoline-3-carboxamide] | 352 | 1.47
NC(=O)c1cn(-c2ccc(F)cc2)c2ccc(Oc3cncc(F)c3)cc2c1=O [Compound 59, 1-(4-fluorophenyl)-6-((5-fluoropyridin-3-yl)oxy)-4-oxo-1,4-dihydroquinoline-3-carboxamide] | 2110 | 0.44
NC(=O)c1cn(-c2ccc(F)cc2)c2ccc(CCc3cccnc3)cc2c1=O [Compound 10, 1-(4-fluorophenyl)-4-oxo-6-(2-(pyridin-3-yl)ethyl)-1,4-dihydroquinoline-3-carboxamide] | 482 ± 87 | 1.9 ± 0.11
NC(=O)c1cn(-c2ccc(F)cc2)c2ccc(CN3CCN(CC(F)(F)F)CC3)cc2c1=O [Compound 81, 1-(4-fluorophenyl)-4-oxo-6-((4-(2,2,2-trifluoroethyl)piperazin-1-yl)methyl)-1,4-dihydroquinoline-3-carboxamide] | 753 | 1.19
NC(=O)c1cn(-c2ccc(F)cc2)c2ccc(NCc3cccnc3)cc2c1=O [Compound 17, 1-(4-fluorophenyl)-4-oxo-6-((pyridin-3-ylmethyl)amino)-1,4-dihydroquinoline-3-carboxamide] | 421 | 1.05
CN(Cc1cccnc1)c1cc2c(=O)c(C(N)=O)cn(-c3ccc(F)cc3)c2cc1F [Compound 52, 7-Fluoro-1-(4-fluorophenyl)-6-(methyl(pyridin-3-ylmethyl)amino)-4-oxo-1,4-dihydroquinoline-3-carboxamide] | 669 | 2.26
NC(=O)c1cn(-c2ccc(F)cc2)c2ccc(CN3CCS(=O)(=O)CC3)cc2c1=O [Compound 84, 6-((1,1-dioxidothiomorpholino)methyl)-1-(4-fluorophenyl)-4-oxo-1,4-dihydroquinoline-3-carboxamide] | 1160 | 2.04
CC1CN(Cc2cc(F)c3c(c2)c(=O)c(C(N)=O)cn3-c2ccc(F)cc2)CCO1 (stereo not drawn) [Compound 93, 8-fluoro-1-(4-fluorophenyl)-6-((2-methylmorpholino)methyl)-4-oxo-1,4-dihydroquinoline-3-carboxamide] | 6520 | 0.14
NC(=O)c1cn(-c2ccc(F)cc2)c2ccc(-c3cccnc3)cc2c1=O [Compound 60, 1-(4-fluorophenyl)-4-oxo-6-(pyridin-3-yl)-1,4-dihydroquinoline-3-carboxamide] | 277 | 1.33
NC(=O)c1cn(-c2ccc(F)cc2)c2ccc(CN3CCCS(=O)(=O)CC3)cc2c1=O [Compound 85, 6-((1,1-dioxido-1,4-thiazepan-4-yl)methyl)-1-(4-fluorophenyl)-4-oxo-1,4-dihydroquinoline-3-carboxamide] | 422 ± 52 | 1.24 ± 0.04
NC(=O)c1cn(-c2ccc(F)cc2)c2ccc(CCc3ccc(C(F)(F)F)nc3)cc2c1=O [Compound 47, 1-(4-fluorophenyl)-4-oxo-6-(2-(6-(trifluoromethyl)pyridin-3-yl)ethyl)-1,4-dihydroquinoline-3-carboxamide] | 1550 | 1.21
Cc1ccc(CCc2ccc3c(c2)c(=O)c(C(N)=O)cn3-c2ccc(F)cc2)cc1 [Compound 6, 1-(4-fluorophenyl)-6-(4-methylphenethyl)-4-oxo-1,4-dihydroquinoline-3-carboxamide] | > 10000 | 68.5
NC(=O)c1cn(-c2ccc(F)cc2)c2ccc(CCc3ccncc3)cc2c1=O [Compound 9, 1-(4-fluorophenyl)-4-oxo-6-(2-(pyridin-4-yl)ethyl)-1,4-dihydroquinoline-3-carboxamide] | 492 ± 97 | 1.88 ± 0.38
COc1ccc(-n2cc(C(N)=O)c(=O)c3cc(CCc4cnc(C)nc4)ccc32)cc1F [Compound 14, 1-(3-fluoro-4-methoxyphenyl)-6-(2-(2-methylpyrimidin-5-yl)ethyl)-4-oxo-1,4-dihydroquinoline-3-carboxamide] | 252 | 1.15
NC(=O)c1cn(-c2ccc(F)cc2)c2ccc(CN3CC4(C3)CC(F)(F)C4)cc2c1=O [Compound 65, 6-((6,6-difluoro-2-azaspiro[3.3]heptan-2-yl)methyl)-1-(4-fluorophenyl)-4-oxo-1,4-dihydroquinoline-3-carboxamide] | 2020 | 1.93
